Where “and” joins values, the source holds several entries; their conditions need not be identical. Equal values may be shown once.
Tests used:
[1] = biological target: HSP90 pools in JNPL3 (AD transgenic) mouse brain lysate; assay: Fluorescence polarization (FP) competitive binding, cy3B-GM; conditions: read-out: FP relative affinity
GBM#5 = assay: Survival studies in mice; type: in vivo, mouse; conditions: 50 mg kg^−1 iv, three times per week, n=7
Source text: (§1) Survival of the animals was followed until the mice became morbid (physical and/or neurological symptoms), at which point, the animals were killed. Typically, mice became symptomatic several weeks to a few months after GSC implantation. Log-rank tests were used to compare the distribution of time to killing across groups and Kaplan–Meier curves were produced.

GBM#7 = assay: Survival studies in mice; type: in vivo, mouse; conditions: 50 mg kg^−1 iv, three times per week, n=7
Source text: as §1

GBM#8 = assay: Survival studies in mice; type: in vivo, mouse; conditions: 50 mg kg^−1 iv, three times per week, n=7
Source text: as §1

HepG2 cells (Pgp +ve) = assay: Cell viability, ATP levels 72 h; type: cell-based, human; conditions: for Cell viability (ATP levels): HEPG2
Protocol: Supplementary Fig. 15: PU-HZ151 activity in cells is unaffected by Pgp overexpression. a Two Pgp-positive cells lines, Kasumi-1 and HepG2, were tested for epichaperome-positivity. β-Actin, loading control. b ATP levels in cell treated for 72 h with 0 to 1 µM PU-HZ151. Data are presented as means ±s.e.m. of three experimental repeats. Control, vehicle (DMSO) treated cells. c Western blot analysis of aberrant signaling pathway inhibition by […]
(also on this page, place not known: MDA‐MB-468ASPC1Kasumi Hep G2 ATP levels %Control MDA‐MB-468ASPC1Kasumi 1Hep G2 β-Actin HSP90α Native-PAGE SDS PAGE 100- β-Actin 1)

[2] = test system: stress HSP90 from MDA-MB-468 cancer cells; assay: Binding to stress HSP90; set-up: species or system human; conditions: study protocol; read-out: affinity (EC50) for stress HSP90
[3] = PET biodistribution in human patients; type: in vivo; conditions: mean n=3
Source text: To evaluate the brain permeability of PU-HZ151 into the human brain, we produced the [^124I]-labeled derivative and performed serial PET imaging studies of human patients (n = 3; NCT03371420), and derived time-activity (i.e. standard uptake values (SUV) versus time post-administration) curves for the brain and various other tissues (Fig. 2b). PET data obtained for [^124I]-labeled PU-H71 (NCT01269593 and ref. [39]) were used for comparison. […] The AUC values recorded for [^124I]-PU-HZ151 in the human brain post-single injection are at par with what was measured in the human muscle and lung, supportive of uptake of PU-HZ151 into the human brain (Fig. 2b). Magnetic resonance imaging (MRI), by offering structural and soft tissue resolution, confirmed the presence of PU-HZ151 in the brain tissue (Fig. 2d). […] The secondary outcome of the trial was to measure adverse events following administration of the probe. Safety of [^124I]-PU-HZ151 in human subjects was assessed by evaluation of the incidence, nature, and severity of adverse events and serious adverse events (Supplementary Note 2).
[^124I]-PU-HZ151 and [^124I]-PU-H71 were synthesized in-house by the institutional cyclotron core facility at high specific activity. Analyses of the epichaperome by positron emission tomography (PET-CT) were performed as previously reported. In brief, research PET-CT was performed using an integrated PET-CT scanner (Discovery DSTE, GE Healthcare). CT scans for attenuation correction and anatomic coregistration were performed before tracer injection. Patients received 5 mCi of [^124I]-PU-HZ151 or [^124I]-PU-H71 by peripheral vein over 2 min. PET data were reconstructed using a standard ordered subset expected maximization iterative algorithm. Emission data were corrected for scatter, attenuation, and decay. PET scans were performed 0.5, 3, and 24 h after tracer administration. Numbers in the scale bar indicate upper and lower standardized uptake value (SUV) thresholds that define pixel intensity on PET images. SUV is a pixel value, derived from PET measurements of in vivo radioactivity, quantified as the fraction of the radioactive dose injected found in a cubic centimeter of measured tissue multiplied (ie, normalized) by patient body weight (grams). Maximum Intensity Projection (MIP) 3D images were constructed from the voxels with maximum intensity that fell in the way of parallel rays traced from the viewpoint to the plane of projection. At each pixel the highest data value encountered along the corresponding viewing ray was determined. MRI scans were obtained as part of routine clinical care using hardware and standard data acquisition and processing methods. MRI was obtained using a 1.5T magnet (Signa HDxt, GE Healthcare, Milwaukee, WI). […] Gadopentetate dimeglumine (Magnevist, HealthCare Pharmaceuticals Inc.) was injected though a peripheral angiocatheter at a standard dose (0.2 mL kg^−1 body weight, 40 mL, 2 cc s^−1). For precise localization of tracer uptake to specific neuroanatomical structures, PET brain images were fused to MRI brain images using the Integrated Registration application of the AW Suite software package (GE Healthcare, Milwaukee, Wisconsin, USA).

patient-derived GSCs = assay: GSC viability (CellTiter-Glo, 48 h); type: cell-based, human; set-up: %Survival of cells at day 0 (ATP levels): concentration or dose not given beside the values; %Survival (ATP levels): reference not given here; conditions: for %Survival (ATP levels): 1 μM, 48 h, individual replicates, listed as PU-HZ151; for %Survival of cells at day 0 (ATP levels): mean

CC(C)(C)CNCCn1c(Sc2cc3c(cc2I)OCO3)nc2c(N)ncnc21 [Compound 85]
EC50 [1]: 5 nM
survival vs vehicle, log-rank P (GBM#5): 0.86
survival vs vehicle, log-rank P (GBM#7): 0.0061
survival vs vehicle, log-rank P (GBM#8): 0.21
activity in Pgp-overexpressing vs Pgp-low cells (HepG2 cells (Pgp +ve)): comparable activity
Cell viability (ATP levels) (HepG2 cells (Pgp +ve); 1.95312 nM, replicates, listed as PU-HZ151, 0.00195312 µM): 87.8706 and 102.165
Cell viability (ATP levels) (HepG2 cells (Pgp +ve); 3.90625 nM, replicates, listed as PU-HZ151, 0.00390625 µM): 90.4471 and 81.5412
Cell viability (ATP levels) (HepG2 cells (Pgp +ve); 7.8125 nM, replicates, listed as PU-HZ151, 0.0078125 µM): 90.4471 and 73.8824
Cell viability (ATP levels) (HepG2 cells (Pgp +ve); 15.625 nM, replicates, listed as PU-HZ151, 0.015625 µM): 83.4588 and 82.6941
Cell viability (ATP levels) (HepG2 cells (Pgp +ve); 31.25 nM, replicates, listed as PU-HZ151, 0.03125 µM): 65.6706 and 60.9647
Cell viability (ATP levels) (HepG2 cells (Pgp +ve); 62.5 nM, replicates, listed as PU-HZ151, 0.0625 µM): 37.2471 and 23.6471
Cell viability (ATP levels) (HepG2 cells (Pgp +ve); 125 nM, replicates, listed as PU-HZ151, 0.125 µM): 13.5294 and 11.2118
Cell viability (ATP levels) (HepG2 cells (Pgp +ve); 500 nM, replicates, listed as PU-HZ151, 0.5 µM): 2.612 and 2.282
Cell viability (ATP levels) (HepG2 cells (Pgp +ve); 1000 nM, replicates, listed as PU-HZ151, 1 µM): 1.824
viability at 0.00195312 µM (HepG2 cells (Pgp +ve); Homo sapiens, HepG2, HEPG2, 1.95312 nM, replicates): 99.4%
viability at 0.00390625 µM (HepG2 cells (Pgp +ve); Homo sapiens, HepG2, HEPG2, 3.90625 nM, replicates): 81.2%
viability at 0.0078125 µM (HepG2 cells (Pgp +ve); Homo sapiens, HepG2, HEPG2, 7.8125 nM, replicates): 79.7%
viability at 0.015625 µM (HepG2 cells (Pgp +ve); Homo sapiens, HepG2, HEPG2, 15.625 nM, replicates): 72.1%
viability at 0.03125 µM (HepG2 cells (Pgp +ve); Homo sapiens, HepG2, HEPG2, 31.25 nM, replicates): 70.3%
viability at 0.0625 µM (HepG2 cells (Pgp +ve); Homo sapiens, HepG2, HEPG2, 62.5 nM, replicates): 27.4%
viability at 0.125 µM (HepG2 cells (Pgp +ve); Homo sapiens, HepG2, HEPG2, 125 nM, replicates): 16.9%
viability at […] (HepG2 cells (Pgp +ve); Homo sapiens, HepG2, HEPG2, 250 nM, replicates): 2.72%
viability at 0.5 µM (HepG2 cells (Pgp +ve); Homo sapiens, HepG2, HEPG2, 500 nM, replicates): 1.86%
viability at 1 µM (HepG2 cells (Pgp +ve); Homo sapiens, HepG2, HEPG2, 1000 nM, replicates): 1.85%
EC50 [2]: 6.9 nM
SUV average, Brain ([3]; 0.5 h): 1.12 SUV
SUV average, Lung ([3]; 0.5 h): 0.59 SUV
SUV average, Muscle ([3]; 0.5 h): 0.87 SUV
SUV average, Brain ([3]; 3 h): 0.49 SUV
SUV average, Lung ([3]; 3 h): 0.34 SUV
SUV average, Muscle ([3]; 3 h): 0.37 SUV
SUV average, Brain ([3]; 24 h): 0.04 SUV
SUV average, Lung ([3]; 24 h): 0.1 SUV
SUV average, Muscle ([3]; 24 h): 0.1 SUV
%Survival (ATP levels) (patient-derived GSCs; GSC #5): 31.63% and 18.68% and 4.03% and -9.88%
%Survival (ATP levels) (patient-derived GSCs; GSC #6): -14.27% and -27.68% and -18.96% and -23.61%
%Survival (ATP levels) (patient-derived GSCs; GSC #7): -51.27% and -33.16% and -43.96% and -19.32%
%Survival (ATP levels) (patient-derived GSCs; GSC #8): -82.2411% and -82.5656% and -44.1066% and -65.5015% and -65.6835% and -64.1317%
%Survival (ATP levels) (patient-derived GSCs; GSC #9): -79.4354% and -88.1536% and -74.4757% and -75.2771% and -91.5176% and -88.8402%
%Survival (ATP levels) (patient-derived GSCs; GSC #10): -43.1943% and -48.7032% and -76.5217% and -90.9365%
%Survival (ATP levels) (patient-derived GSCs; GSC #13): -9.18% and -20.17% and 1.94% and -5.51% and 23.62% and 22.18%
%Survival (ATP levels) (patient-derived GSCs; GSC #15): -58.61% and -73.45% and -36.64% and -48.92%
%Survival (ATP levels) (patient-derived GSCs; GSC #18): -64.4% and -60.27% and -57.05% and -50.97%
%Survival (ATP levels) (patient-derived GSCs; GSC #19): -11.96% and -35.33% and -40.35% and -2.66% and -9.81%
%Survival (ATP levels) (patient-derived GSCs; GSC #24): -81.22% and -79.53% and -20.38% and -28.49%
%Survival (ATP levels) (patient-derived GSCs; GSC #30): -95.74% and -99.62% and -58.98% and -67.84% and -66.79% and -85.07% and -94.89%
%Survival (ATP levels) (patient-derived GSCs; GSC #31): 36.5% and 32.49% and 59.07% and 79.62% and 33.55% and 9%
%Survival of cells at day 0 (ATP levels) (patient-derived GSCs; GSC# 5): 11.1%
%Survival of cells at day 0 (ATP levels) (patient-derived GSCs; GSC# 6): -21.1%
%Survival of cells at day 0 (ATP levels) (patient-derived GSCs; GSC# 8): -67.4%
%Survival of cells at day 0 (ATP levels) (patient-derived GSCs; GSC# 9): -82.9%
%Survival of cells at day 0 (ATP levels) (patient-derived GSCs; GSC# 10): -64.8%
%Survival of cells at day 0 (ATP levels) (patient-derived GSCs; GSC# 13): 2.1%
%Survival of cells at day 0 (ATP levels) (patient-derived GSCs; GSC# 15): -54.4%
%Survival of cells at day 0 (ATP levels) (patient-derived GSCs; GSC# 17): 16.9%
%Survival of cells at day 0 (ATP levels) (patient-derived GSCs; GSC# 18): -58.2%
%Survival of cells at day 0 (ATP levels) (patient-derived GSCs; GSC# 19): -20%
%Survival of cells at day 0 (ATP levels) (patient-derived GSCs; GSC# 24): -52.4%
%Survival of cells at day 0 (ATP levels) (patient-derived GSCs; GSC# 30): -81.3%
%Survival of cells at day 0 (ATP levels) (patient-derived GSCs; GSC# 31): 41.7%
